According to US9738653B2, “Fused furans for the treatment of hepatitis C” (BRISTOL-MYERS SQUIBB COMPANY, priority 2013, dated 2017):

Tests used:
[1] = molecular target: T1, HCV NS5B genotype 1b (Con1) (Hepatitis C virus genotype 1b, UniProt Q9WMX2); assay: HCV NS5B RdRp enzyme assay; assay type: biochemical; details: 1b enzyme, 24 hours at 30° C.
T1 construct: Each untagged protein was expressed with an 18 amino acid C-terminal truncation to enhance the solubility; made in house; host or cells: E. coli BL21(DE3), pET21a
T1 sequence (Q9WMX2 2420-2992): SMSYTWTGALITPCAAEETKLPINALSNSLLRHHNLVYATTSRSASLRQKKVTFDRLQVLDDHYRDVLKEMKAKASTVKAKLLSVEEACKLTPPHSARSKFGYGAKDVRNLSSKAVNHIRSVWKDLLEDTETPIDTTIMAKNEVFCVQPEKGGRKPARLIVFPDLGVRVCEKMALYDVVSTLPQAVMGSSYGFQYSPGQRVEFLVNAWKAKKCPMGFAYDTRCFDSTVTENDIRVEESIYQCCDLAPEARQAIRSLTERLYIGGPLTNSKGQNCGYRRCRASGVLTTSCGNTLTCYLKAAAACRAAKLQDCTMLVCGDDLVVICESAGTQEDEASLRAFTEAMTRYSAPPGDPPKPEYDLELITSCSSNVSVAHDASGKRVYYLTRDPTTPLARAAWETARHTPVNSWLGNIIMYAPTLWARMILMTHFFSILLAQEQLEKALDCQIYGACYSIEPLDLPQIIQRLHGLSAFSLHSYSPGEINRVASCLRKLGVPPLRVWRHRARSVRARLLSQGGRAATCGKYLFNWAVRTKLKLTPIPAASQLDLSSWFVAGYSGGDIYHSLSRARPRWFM
Method: The cDNA encoding NS5B proteins of HCV genotype 1b (Con1), a genotype 1b variant with amino acid 316 mutated from cysteine to asparagine, and genotype 2a (JFH-1), were cloned into the pET21a expression vector. Each untagged protein was expressed with an 18 amino acid C-terminal truncation to enhance the solubility. The E. coli competent cell line BL21(DE3) was used for expression of the protein. Cultures were grown at 37° C. for ˜4 hours until the cultures reached an optical density of 2.0 at 600 nm. The cultures were cooled to 20° C. and induced with 1 mM IPTG. Fresh ampicillin was added to a final concentration of 50 μg/mL and the cells were grown overnight at 20° C.
The lysis buffer consisted of 20 mM Tris-HCl, pH 7.4, 500 mM NaCl, 0.5% triton X-100, 1 mM DTT, 1 mM EDTA, 20% glycerol, 0.5 mg/mL lysozyme, 10 mM MgCl2, 15 ug/mL deoxyribonuclease I, and Complete™ protease inhibitor tablets (Roche). After addition of the lysis buffer, frozen cell pellets were resuspended using a tissue homogenizer. To reduce the viscosity of the sample, aliquots of the lysate were sonicated on ice using a microtip attached to a Branson sonicator. The sonicated lysate was centrifuged at 100,000×g for 30 minutes at 4° C. and filtered through a 0.2 μm filter unit (Corning).
The protein was purified using two sequential chromatography steps: Heparin sepharose CL-6B and polyU sepharose 4B. The chromatography buffers were identical to the lysis buffer but contained no lysozyme, deoxyribonuclease I, MgCl2 or protease inhibitor and the NaCl concentration of the buffer was adjusted according to the requirements for charging the protein onto the column. Each column was eluted with a NaCl gradient which varied in length from 5-50 column volumes depending on the column type. […] The enzyme was aliquoted and stored at −80° C.
An on-bead solid phase homogeneous assay was used in a 384-well format to assess NS5B inhibitors (WangY-K, Rigat K, Roberts S, and Gao M (2006) Anal Biochem, 359: 106-111). The biotinylated oligo dT12 primer was captured on streptavidin-coupled imaging beads (GE, RPNQ0261) by mixing primer and beads in 1× buffer and incubating at room temperature for three hours. Unbound primer was removed after centrifugation. The primer-bound beads were resuspended in 3× reaction mix (20 mM Hepes buffer, pH 7.5, dT primer coupled beads, poly A template, ^3H-UTP, and RNAse inhibitor (Promega N2515)). Compounds were serially diluted 1:3 in DMSO and aliquoted into assay plates. Equal volumes (5 μL) of water, 3× reaction mix, and enzyme in 3× assay buffer (60 mM Hepes buffer, pH 7.5, 7.5 mM MgCl2, 7.5 mM KCl, 3 mM DTT, 0.03 mg/mL BSA, 6% glycerol) were added to the diluted compound on the assay plate. Final concentration of components in 384-well assay: 0.36 nM template, 15 nM primer, 0.29 μM ^3H-UTP (0.3 μCi, 1.6 U/μL RNAse inhibitor, 7 nM NS5B enzyme, 0.01 mg/mL BSA, 1 mM DTT, and 0.33 μg/μL beads, 20 mM Hepes buffer, pH 7.5, 2.5 mM MgCl2, 2.5 mM KCl, and 0.1% DMSO.
Reactions were allowed to proceed for 24 hours at 30° C. and terminated by the addition of 50 mM EDTA (5 μL). After incubating for at least 15 minutes, plates were read on an Amersham LEADseeker multimodality imaging system.
IC50 values for compounds were determined using ten different [I]. IC50 values were calculated from the inhibition using the four-parameter logistic formula y=A+((B−A)/(1+((C/x)^D))), where A and B denote minimal and maximal % inhibition, respectively, C is the IC50, D is hill slope and x represents compound concentration.

[2] = tested on: genotype 1b (Con-1) HCV replicon in Huh-7 cells; assay: HCV replicon luciferase assay; assay type: cell-based; details: 1b replicon, Renilla luciferase, 3 days incubation
Method: The cell lines used to evaluate compounds consist of a human hepatocyte derived cell line (Huh-7) that constitutively expresses a genotype 1b (Con-1) HCV replicon or a genotype 1b (Con-1) HCV replicon with an asparagine replacing the cysteine at amino acid 316, or a genotype 2a (JFH-1) replicon, containing a Renilla luciferase reporter gene. These cells were maintained in Dulbecco's modified Eagle medium (DMEM) containing 10% FBS, 100 U/mL penicillin/streptomycin and 1.0 mg/mL G418.
To evaluate compound efficacy, titrated compounds were transferred to sterile 384-well tissue culture treated plates, and the plates were seeded with HCV replicon cells ([…] at a density of 2.4×10^3 cells/well) in DMEM containing 4% FBS (final DMSO concentration at 0.5%). After 3 days incubation at 37° C., cells were analyzed for Renilla Luciferase activity using the EnduRen substrate (Promega cat #E6485) according to the manufacturer's directions. Briefly, the EnduRen substrate was diluted in DMEM and then added to the plates to a final concentration of 7.5 μM. The plates were incubated for at least 1 h at 37° C. then read on a Viewlux Imager (PerkinElmer) using a luminescence program. The 50% effective concentration (EC50) was calculated using the four-parameter logistic formula noted above.

Row | Compound | IC50 [1] [nM] | EC50 ([2]; Hepatitis C virus, Huh-7, 72 h) [nM] | EC50 [2] [nM]
1 | CNC(=O)c1c(-c2ccc(F)cc2)oc2nc(CCC(F)(F)F)c(-c3ccc(F)c(C(=O)NC45CC(C4)C5)c3)cc12 | 9.4 | 5.05 | –
2 | CNC(=O)c1c(-c2ccc(F)cc2)oc2nc(CCC(F)(F)F)c(-c3cccc(C(=O)NC45CC(C4)C5)c3)cc12 | 5.85 | 4.07 | –
3 | CNC(=O)c1c(-c2ccc(F)cc2)oc2cc(CCC(F)(F)F)c(-c3cc(C(=O)NC45CC(C4)C5)c(OC)cc3C)cc12 | 50 | 40 | –
4 | CCCc1nc2oc(-c3ccc(F)cc3)c(C(=O)NC)c2cc1-c1cccc(C(=O)NC23CC(C2)C3)c1 | 7.73 | 5.26 | –
5 | CNC(=O)c1c(-c2ccc(F)cc2)oc2cc(CC(N)=O)c(-c3cccc(C(=O)NC45CC(C4)C5)c3)cc12 | 40 | 20 | –
6 | CCCc1nc2oc(-c3ccc(F)cc3)c(C(=O)NC)c2cc1-c1ccc(F)c(C(=O)NC23CC(C2)C3)c1 | 5.65 | 5.16 | –
7 | CNC(=O)c1c(-c2ccc(F)cc2)oc2cc([N+](=O)[O-])c(-c3cccc(C(=O)NC45CC(C4)C5)c3)c(F)c12 | 680 | 170 | –
8 | CNC(=O)c1c(-c2ccc(F)cc2)oc2cc(CCC(F)F)c(-c3cccc(C(=O)NC45CC(C4)C5)c3)cc12 | 7.19 | 3.89 | –
9 | CNC(=O)c1c(-c2ccc(F)cc2)oc2cc(CCC(F)(F)F)c(-c3cc(C(=O)NC45CC(C4)C5)c(F)cc3C)cc12 | 20 | 20 | –
10 | CNC(=O)c1c(-c2ccc(F)cc2)oc2nc(NCC(F)F)c(-c3cccc(C(=O)NC45CC(C4)C5)c3)cc12 | 8.63 | 4.3 | –
11 | CNC(=O)c1c(-c2ccc(F)cc2)oc2nc(NCC(F)(F)F)c(-c3ccc(OC)c(C(=O)NC45CC(C4)C5)c3)cc12 | 20 | 3.72 | –
12 | CCCc1cc2oc(-c3ccc(F)cc3)c(C(=O)NC)c2cc1-c1cccc(C(=O)NC23CC(C2)C3)c1 | 20 | 5.82 | –
13 | CNC(=O)c1c(-c2ccc(F)cc2)oc2nc(CCC(F)(F)F)c(-c3cnc(OC)c(C(=O)NC45CC(C4)C5)c3)cc12 | 3.65 | 6.48 | –
14 | CNC(=O)c1c(-c2ccc(F)cc2)oc2nc(NCC(F)F)c(-c3ccc(F)c(C(=O)NC45CC(C4)C5)c3)cc12 | 6.13 | 2.13 | –
15 | CNC(=O)c1c(-c2ccc(F)cc2)oc2nc(CCC(F)(F)F)c(-c3cncc(C(=O)NC45CC(C4)C5)c3)cc12 | 20 | 3.3 | –
16 | CNC(=O)c1c(-c2ccc(F)cc2)oc2nc(NCC(F)(F)F)c(-c3ccc(F)c(C(=O)NC45CC(C4)C5)c3)cc12 | 9.08 | 4.34 | –
17 | CNC(=O)c1c(-c2ccc(F)cc2)oc2nc(OC)c(-c3ccc(F)c(C(=O)NC45CC(C4)C5)c3)cc12 | 90 | 20 | –
18 | CCC(C)c1cc2oc(-c3ccc(F)cc3)c(C(=O)NC)c2cc1-c1cccc(C(=O)NC23CC(C2)C3)c1 (stereo not drawn) [drawing 294] | 10 | – | 10
19 | CNC(=O)c1c(-c2ccc(F)cc2)oc2cc(OCC(F)(F)F)c(-c3ccc(OC)c(C(=O)NC45CC(C4)C5)c3)cc12 | 4.55 | 10 | –
20 | CNC(=O)c1c(-c2ccc(F)cc2)oc2nc(NCC(F)F)c(-c3ccc(OC)c(C(=O)NC45CC(C4)C5)c3)cc12 | 8.87 | 6.23 | –

Row | Compound | IC50 [1] [nM] | EC50 ([2]; Hepatitis C virus, Huh-7, 72 h) [nM] | EC50 [2] [nM]
21 | CNC(=O)c1c(-c2ccc(F)cc2)oc2cc(CCCO)c(-c3cccc(C(=O)NC45CC(C4)C5)c3)cc12 | 9.56 | 3.86 | –
22 | CNC(=O)c1c(-c2ccc(F)cc2)oc2cc(CCC(F)(F)F)c(-c3ccc(F)c(C(=O)NC45CC(C4)C5)c3)cc12 | 30 | 10 | –
23 | CCC(C)c1cc2oc(-c3ccc(F)cc3)c(C(=O)NC)c2cc1-c1cccc(C(=O)NC23CC(C2)C3)c1 (stereo not drawn) [drawing 304] | 5.87 | 10 | –
24 | CNC(=O)c1c(-c2ccc(F)cc2)oc2nc(CCC(F)(F)F)c(-c3ccc(OC)c(C(=O)NC45CC(C4)C5)c3)cc12 | 10 | 9.23 | –
25 | CCN(c1nc2oc(-c3ccc(F)cc3)c(C(=O)NC)c2cc1-c1cccc(C(=O)NC23CC(C2)C3)c1)S(C)(=O)=O | 6.8 | 2.85 | –
26 | CCNc1cc2oc(-c3ccc(F)cc3)c(C(=O)NC)c2cc1-c1cc(C(=O)NC23CC(C2)C3)c(F)cc1F | 20 | 10 | –
27 | CNC(=O)c1c(-c2ccc(F)cc2)oc2cc(COC)c(-c3cccc(C(=O)NC45CC(C4)C5)c3)c(F)c12 | 210 | 7.88 | –
28 | CNC(=O)c1c(-c2ccc(F)cc2)oc2cc(NCC(F)(F)F)c(-c3ccc(OC)c(C(=O)NC45CC(C4)C5)c3)cc12 | 7.17 | 5.08 | –
29 | CNC(=O)c1c(-c2ccc(F)cc2)oc2nc(NCC(F)(F)F)c(-c3cnc(OC)c(C(=O)NC45CC(C4)C5)c3)cc12 | 6.54 | 5.79 | –
30 | CCCc1cc2oc(-c3ccc(F)cc3)c(C(=O)NC)c2cc1-c1cc(C(=O)NC23CC(C2)C3)c(OC)cc1C | 30 | 30 | –
31 | CNC(=O)c1c(-c2ccc(F)cc2)oc2ncc(-c3ccc(F)c(C(=O)NC45CC(C4)C5)c3)cc12 | 220 | 50 | –
32 | CNC(=O)c1c(-c2ccc(F)cc2)oc2cc(CCNC(=O)OC)c(-c3cccc(C(=O)NC45CC(C4)C5)c3)cc12 | 20 | 20 | –
33 | CNC(=O)c1c(-c2ccc(F)cc2)oc2cc(CCNS(C)(=O)=O)c(-c3cccc(C(=O)NC45CC(C4)C5)c3)cc12 | 10 | 20 | –
34 | CCCc1cc2oc(-c3ccc(F)cc3)c(C(=O)NC)c2cc1-c1cc(C(=O)NC23CC(C2)C3)c(F)cc1C | 20 | 30 | –
35 | CNC(=O)c1c(-c2ccc(F)cc2)oc2cc(COC)c(-c3cc(C(=O)NC45CC(C4)C5)c(OC)cc3C)c(F)c12 | 30 | 30 | –
36 | CCCc1cc2oc(-c3ccc(F)cc3)c(C(=O)NC)c2cc1-c1ccc(F)c(C(=O)NC23CC(C2)C3)c1 | 10 | 8.79 | –
37 | CNC(=O)c1c(-c2ccc(F)cc2)oc2nc(CCC(F)(F)F)c(-c3cc(F)cc(C(=O)NC45CC(C4)C5)c3)cc12 | 30 | 10 | –
38 | CNC(=O)c1c(-c2ccc(F)cc2)oc2cc(CCCF)c(-c3cccc(C(=O)NC45CC(C4)C5)c3)cc12 | 3.29 | 3.33 | –
39 | CNC(=O)c1c(-c2ccc(F)cc2)oc2cc(CC(=O)OC)c(-c3cccc(C(=O)NC45CC(C4)C5)c3)cc12 | 8.01 | 8.19 | –
